Test results: ChEMBL document CHEMBL4393714, “Multi-targeting protein-protein interaction inhibitors: Evolution of macrocyclic ligands with embedded carbohydrates (MECs) to improve selectivity” (Eur J Med Chem, 2019)

Experiments:
[1] = Displacement of [3H] batrachotoxinin from rat sodium channel site 2 measured after 60 mins by scintillation counter method
Substance-K receptor = target: T1, Substance-K receptor (Homo sapiens, UniProt P21452); experiment: Displacement of [125I]NKA from human recombinant NK2 receptor measured after 60 mins by scintillation counter method
T1 sequence (P21452 whole entry): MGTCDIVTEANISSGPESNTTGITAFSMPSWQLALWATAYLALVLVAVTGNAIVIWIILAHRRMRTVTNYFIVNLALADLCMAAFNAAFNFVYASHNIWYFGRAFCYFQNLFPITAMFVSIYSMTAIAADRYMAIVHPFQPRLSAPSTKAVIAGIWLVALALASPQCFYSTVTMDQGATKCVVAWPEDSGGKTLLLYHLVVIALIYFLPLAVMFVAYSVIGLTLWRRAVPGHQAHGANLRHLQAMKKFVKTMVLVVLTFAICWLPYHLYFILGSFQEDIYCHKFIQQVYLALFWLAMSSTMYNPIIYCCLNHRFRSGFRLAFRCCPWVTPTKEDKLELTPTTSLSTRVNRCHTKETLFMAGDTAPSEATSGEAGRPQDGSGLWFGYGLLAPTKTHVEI

[2] = target: T2, 5-hydroxytryptamine receptor 1A (Homo sapiens, UniProt P08908); experiment: Displacement of [3H]OH-DPAT from human recombinant 5-HT1A receptor measured after 60 mins by scintillation counter method
T2 sequence (P08908 whole entry): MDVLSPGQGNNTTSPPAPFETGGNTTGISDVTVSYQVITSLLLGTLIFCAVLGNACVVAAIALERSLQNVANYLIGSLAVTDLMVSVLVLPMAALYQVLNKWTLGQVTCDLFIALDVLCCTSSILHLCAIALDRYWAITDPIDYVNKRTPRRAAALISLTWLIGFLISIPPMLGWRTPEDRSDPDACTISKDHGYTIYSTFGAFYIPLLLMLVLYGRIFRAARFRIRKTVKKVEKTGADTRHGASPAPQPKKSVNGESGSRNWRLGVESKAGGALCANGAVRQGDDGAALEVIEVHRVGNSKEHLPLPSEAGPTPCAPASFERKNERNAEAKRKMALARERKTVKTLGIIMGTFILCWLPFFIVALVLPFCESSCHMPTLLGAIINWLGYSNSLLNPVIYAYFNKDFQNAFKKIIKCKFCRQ

[3] = target: 5-hydroxytryptamine receptor 2A (Homo sapiens, UniProt P28223); experiment: Displacement of [3H] ketanserin from human recombinant 5-HT2A receptor measured after 60 mins by scintillation counter method
[4] = target: 5-hydroxytryptamine receptor 2B (Homo sapiens, UniProt P41595); experiment: Antagonist activity at human recombinant 5-HT2B receptor in CHOK1 cells measured after 30 mins by HTRF assay; format: cell-based
[5] = target: Sodium-dependent serotonin transporter (Homo sapiens, UniProt P31645); experiment: Displacement of [3H] imipramine from human recombinant 5-HT transporter measured after 60 mins by scintillation counter method
Sodium-dependent serotonin transporter, sequence (P31645 whole entry): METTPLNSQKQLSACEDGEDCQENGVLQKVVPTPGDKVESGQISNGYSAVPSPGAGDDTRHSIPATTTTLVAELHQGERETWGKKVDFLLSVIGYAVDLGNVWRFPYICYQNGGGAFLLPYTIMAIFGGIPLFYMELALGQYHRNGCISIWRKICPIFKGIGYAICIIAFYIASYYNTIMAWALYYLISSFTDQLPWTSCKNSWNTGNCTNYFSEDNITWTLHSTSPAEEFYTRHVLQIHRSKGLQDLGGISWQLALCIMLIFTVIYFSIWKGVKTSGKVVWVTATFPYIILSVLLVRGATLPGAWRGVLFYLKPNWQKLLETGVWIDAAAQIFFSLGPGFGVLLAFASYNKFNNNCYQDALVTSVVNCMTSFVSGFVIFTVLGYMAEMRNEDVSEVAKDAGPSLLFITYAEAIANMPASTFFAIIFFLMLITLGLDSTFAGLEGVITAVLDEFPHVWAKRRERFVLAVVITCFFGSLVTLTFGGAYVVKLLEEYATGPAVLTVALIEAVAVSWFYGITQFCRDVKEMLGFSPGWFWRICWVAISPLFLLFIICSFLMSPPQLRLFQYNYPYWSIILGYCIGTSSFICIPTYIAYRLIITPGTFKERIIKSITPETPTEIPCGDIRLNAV

5-hydroxytryptamine receptor 2B, sequence (P41595 whole entry): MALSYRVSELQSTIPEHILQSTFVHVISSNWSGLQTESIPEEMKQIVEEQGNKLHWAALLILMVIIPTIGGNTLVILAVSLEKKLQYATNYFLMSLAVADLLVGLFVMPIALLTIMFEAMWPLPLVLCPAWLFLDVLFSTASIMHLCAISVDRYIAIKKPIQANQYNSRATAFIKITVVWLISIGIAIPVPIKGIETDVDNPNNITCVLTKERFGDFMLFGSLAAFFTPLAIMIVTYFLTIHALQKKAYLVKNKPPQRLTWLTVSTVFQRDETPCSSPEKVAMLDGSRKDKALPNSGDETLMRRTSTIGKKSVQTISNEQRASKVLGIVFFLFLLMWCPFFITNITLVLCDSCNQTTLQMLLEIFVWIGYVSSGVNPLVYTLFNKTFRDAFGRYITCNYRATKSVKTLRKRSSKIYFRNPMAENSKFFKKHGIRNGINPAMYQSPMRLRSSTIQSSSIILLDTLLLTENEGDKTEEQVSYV
5-hydroxytryptamine receptor 2A, sequence (P28223 whole entry): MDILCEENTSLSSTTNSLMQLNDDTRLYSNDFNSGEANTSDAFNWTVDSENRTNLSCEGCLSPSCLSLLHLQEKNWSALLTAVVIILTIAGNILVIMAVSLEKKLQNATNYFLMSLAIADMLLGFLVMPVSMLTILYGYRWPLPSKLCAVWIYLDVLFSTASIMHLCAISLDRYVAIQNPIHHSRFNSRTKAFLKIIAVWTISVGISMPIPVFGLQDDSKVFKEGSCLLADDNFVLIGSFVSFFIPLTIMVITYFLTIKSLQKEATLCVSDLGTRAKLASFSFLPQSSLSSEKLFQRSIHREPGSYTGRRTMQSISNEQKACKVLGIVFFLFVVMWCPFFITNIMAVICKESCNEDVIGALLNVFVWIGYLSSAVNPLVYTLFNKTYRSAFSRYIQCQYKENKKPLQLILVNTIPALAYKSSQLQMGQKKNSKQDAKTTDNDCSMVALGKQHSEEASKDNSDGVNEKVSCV

Compound | IC50 [1] | Ki [1] | IC50 (Substance-K receptor) | Ki (Substance-K receptor) | IC50 [2] | Ki [2] | IC50 [3] | Ki [3] | IC50 [4] | Ki [4] | IC50 [5] | Ki [5]
COc1ccc(C(=O)O[C@H]2CC[C@@]3(C)[C@@H]4CC[C@H]5[C@]6(O)C[C@H](O)[C@@]7(O)[C@@H](CN8C[C@@H](C)CC[C@H]8[C@@]7(C)O)[C@]6(O)C[C@@]53O[C@]24O)cc1OC [VERATRIDINE] | 8.9 µM | 8.1 µM |  |  |  |  |  |  |  |  |  | 
CC(C)CCO[C@@H]1[C@H]2OC(C)(C)O[C@H]2[C@H]2COCc3cn(nn3)C[C@H]3O[C@H](CCN(CCc4ccc5ccccc5c4)CC[C@H]1O2)[C@H](OCCC(C)C)[C@H]1OC(C)(C)O[C@H]13 | 0.46 µM | 0.41 µM | 3 µM | 1.6 µM | 0.68 µM | 0.42 µM | 8.7 µM | 4.7 µM | 15 µM | 8.2 µM | > 100 µM | > 100 µM
CN1C[C@@H](NS(=O)(=O)N(C)C)C[C@@H]2c3cccc4c3c(cn4C)C[C@H]21 [MESULERGINE] |  |  |  |  |  |  |  |  | 0.0052 µM | 0.0028 µM |  | 
